# In patent publication US12539298B2, “Lobinaline N-oxides as positive allosteric modulators of the dopamine transporter with potential value in the treatment of substance abuse disorders” (University of Kentucky Research Foundation, priority 2019, dated 2026):
# pIC50, pKi: −log10 of the molar value. Read-outs that look alike come from different tables or passages of the source.
# Legend:
# DAT [1] = target: T1, DAT (Rattus norvegicus, UniProt P23977); design: from tissue; host or cells: rat striatum (synaptosomes; homogenate); settings: literature values [33], [34]; read-out: IC50, DA uptake under similar conditions; cited from earlier work
# nicAChRs [2] = experiment: displacement of [3H]epibatidine from rat brain homogenates; format: binding
# aqueous solubility = format: physicochemical
# Text: Lobinaline (FIG. 1), was isolated from plant material and identified as the first-known binitrogenous plant alkaloid more than 80 years ago [27]. The applicants began to test its pharmacological activity after identifying Lobelia cardinalis as a novel source of nicAChR activity by high throughput screening in 2005 [26]. This plant species has no history of abuse, or traditional medicinal use of relevance to SUDs. […] These actions support lobinaline as a lead compound for the treatment of SUDs, particularly alcohol and nicotine use disorders. […] Lobinaline also appears to have appropriate pharmacokinetics and low toxicity. […] Conversely, this makes it a good test of the ability of target-directed evolution to generate novel inhibitors of the DAT in mutant plant cells.
# Lobinaline and the “mono”-N-oxide were separated from plant and culture material by acid/base extraction, but the bi-N-oxide was derived from lobinaline using 3-chloroperbenzoic acid. All these compounds were separated by column chromatography with identity and purity confirmed by LC/MS.
# DAT [3] = target: T1, DAT; experiment: DA clearance in striatum of anesthetized rats by in vivo electrochemistry (high-speed chronoamperometry), Example 8; design: DA clearance in striatum and nucleus accumbens of urethane-anesthetized SD rats; from tissue; host or cells: striatum / nucleus accumbens of living anesthetized SD rats; species or system SD rats; settings: for reduction in DA clearance: striatum, 1 minute after local application (lobinaline ~250 nl 1 mM; 403, 419 ~300 nl 250 μM), FIGS. 7-9; for increase in amplitude of DA signal: ~300 nl, 250 μM local application, FIGS. 8, 9
# Experimental: DA clearance in striatum and nucleus accumbens of urethane-anesthetized SD rats was monitored by in vivo electrochemistry using high-speed chrono-amperometry [see 36]. After obtaining reproducible signals for locally applied DA, vehicle or drug was applied slowly over 10-30 sec, then 30-60 sec later the next application of DA was made, with subsequent DA applications at 5-minute intervals for 25-30 min. The DA kinetic data from each animal was analyzed using FAST software (Quanteon). […] These effects were no longer seen 3-5 minutes after lobinaline ejection. They are consistent with simple competitive inhibition of the DAT by lobinaline. […] However, the lobinaline N-oxides produce different effects. Representative data from lobinaline N-oxide, at the same concentration used for lobinaline (1 mM in 250 nl medium) are shown in FIG. 6. […] This is entirely consistent with effects on synaptosomal [3H]DA uptake in vitro above, and probably represents competitive inhibition. However, after exposure to the N-oxide there is a significant and prolonged (c20 min) increase in the first order rate of decay of the DA peak. […] This increase in rate constant induced by the N-oxide varied from 20× to 2× at increasing depths in the DV gradient.
# The uptake rate of locally applied DA (˜100 nl; 200 μM) was measured before and 1 minute after local application of lobinaline (˜250 nl; 1 mM), 403 (˜300 nl; 250 μM) or 419 (˜300 nl; 250 μM) (FIGS. 7, 8, and 9).
# DAT [4] = target: T1, DAT; experiment: [3H]DA uptake into rat striatal synaptosomes; format: biochemical; design: from tissue; host or cells: rat striatum (synaptosomes; homogenate); settings: compound added 15 min before [3H]DA, 30 min at 37° C, read-out: IC50, inhibition of [3H]-DA uptake
# Experimental: Lobinaline or the N-oxides were added 15 min before addition of [3H]DA. Synaptosomal uptake of [3H]DA was measured after 30 min incubation at 37° C.
# DAT [5] = target: T1, DAT; experiment: dopamine uptake in striatum of isoflurane-anesthetized rats by in vivo electrochemistry, Examples 19-20; design: DA clearance in striatum and nucleus accumbens of urethane-anesthetized SD rats; from tissue; host or cells: striatum / nucleus accumbens of living anesthetized SD rats; species or system SD rats
# Experimental: After obtaining reproducible signals for locally applied DA (50-75 nl, 200 μM) to produce a control DA peak height below 1 uM, vehicle or drug was locally applied slowly over 10-30 sec (˜500 nl 250 μM), then 60 sec later the next application of DA was performed, with subsequent DA applications at 5-min intervals for 25 min. […] The DA kinetic data from each animal were analyzed using FAST software (Quanteon, LLC, Nicholasville KY USA). […] These parameters were compared between pre- and post-drug application by one-way ANOVA with Tukey's post hoc analysis, with significance assigned at p<0.05.
# [6] = conditioned place preference (abuse potential); format: in vivo, SD rats
# Text: In conditioned place preference a chamber with distinct cues is repeatedly paired with administration of the test drug. A second chamber is repeatedly paired with a control injection. After conditioning, a test phase allows the rat to move between the chambers. If a drug is “rewarding” (i.e. has abuse potential), the rat spends more time in the drug-associated chamber. If it is aversive, the opposite result is obtained.
# Methods: 6 male and 6 female SD rats were used for each drug and dose. Test drugs (5 or 25 mg/kg lobinaline, or 25 mg/Kg of lobinaline bi-N-oxide S.C) were paired with the “less preferred” compartment (standard for drugs that may be weakly reinforcing) for 20 minutes. On the next day, rats received a control (DMSO/saline) injection and were placed in the preferred chamber. After three repeated pairings (test and control), the subjects were given access to both chambers and the time spent in each compartment was recorded and scored by an observer blind to treatment. Analysis was by two way ANOVA with post hoc Bonnferoni with significance set at p<0.05. Results. Most animals spent most of the test period in the compartment originally preferred in the drug-free state, and there were no significant differences between drug and vehicle controls.
# [7] = Drinking in the dark model of binge drinking; format: in vivo, C57Bl/6J mice; settings: 25 mg/Kg SC
# Experimental: “Drinking in the dark” is a model for binge drinking in which C57Bl/6J mice are given limited access to alcohol during their dark cycle. With repeated daily access, mice will voluntarily drink to blood alcohol levels above 150 mg/dl. Lobeline reduces alcohol consumption in this model and it has predictive validity in that both naltrexone and acamprosate are active.
# Methods: 8 male and 8 female mice were used for each of these studies and scoring was by an observer blind to treatment. Statistical analysis was by ANOVA followed by Bonnferoni posthoc with significance at p<0.05.
# [8] = nicotine-induced locomotor activation (LMA), open field; format: in vivo, SD rats
# Experimental: low S.C. doses of nicotine, repeated daily, cause progressive LMA related to mesolimbic DA release. This is reduced by lobeline and varenicline and therefore has predictive value as a screen for potential therapeutics in nicotine use disorder.
# Methods: 2 groups of 6 adult SD rats of each sex were tested in an open-field apparatus for LMA. Each animal received a daily nicotine injection (0.5 mg/Kg SC) for 6 days with the last nicotine injection preceded (20 min) by 25 mg/Kg SC of lobinaline bi-N-oxide. Behavior was recorded and scored by an observer blind to treatment. Data was presented as line crosses/5 minutes with LMA over days 1-5 compared to LMA on day 6.
# nicAChRs [9] = experiment: [3H]DA release from superfused rat striatal slices; format: cell-based; settings: antagonist 10 μM
# Experimental: Effects of lobinaline and nicotine on [3H]DA release from superfused rat striatal slices (ref 5): rat brain striatal slices were incubated with [3H]DA for 30 min at […] before transfer to superfusion chambers. […] To evaluate the role of nicAChRs, striatal slices preloaded with [3H]-DA were pretreated with the nicAChR antagonist mecamylamine (10 μM) prior to superfusion of lobinaline (100 μM). […] With the data above from SHSY5Y cells, this supports a partial agonist action of lobinaline at nicAChRs. The N-oxides have not yet been tested in this system. Lobinaline has weak agonist effects on nicAChRs, but also has as yet unquantified antagonist effects (i.e. it acts as a partial agonist at nicAChRs).
# nicAChR = experiment: 45Ca2+ entry into SHSY5Y cells; format: cell-based; settings: SHSY5Y cells; antagonist 1 uM
# Text: Effects of lobinaline and nicotine on ^45Ca^2+ entry into SHSY5Y cells: nicAChR function can be evaluated semi-quantitatively in this cell line by measuring ^45Ca^2+ entry in response to nicotine. […] The lobinaline N-oxides have not yet been tested in this system.
# T1 sequence (P23977 whole entry): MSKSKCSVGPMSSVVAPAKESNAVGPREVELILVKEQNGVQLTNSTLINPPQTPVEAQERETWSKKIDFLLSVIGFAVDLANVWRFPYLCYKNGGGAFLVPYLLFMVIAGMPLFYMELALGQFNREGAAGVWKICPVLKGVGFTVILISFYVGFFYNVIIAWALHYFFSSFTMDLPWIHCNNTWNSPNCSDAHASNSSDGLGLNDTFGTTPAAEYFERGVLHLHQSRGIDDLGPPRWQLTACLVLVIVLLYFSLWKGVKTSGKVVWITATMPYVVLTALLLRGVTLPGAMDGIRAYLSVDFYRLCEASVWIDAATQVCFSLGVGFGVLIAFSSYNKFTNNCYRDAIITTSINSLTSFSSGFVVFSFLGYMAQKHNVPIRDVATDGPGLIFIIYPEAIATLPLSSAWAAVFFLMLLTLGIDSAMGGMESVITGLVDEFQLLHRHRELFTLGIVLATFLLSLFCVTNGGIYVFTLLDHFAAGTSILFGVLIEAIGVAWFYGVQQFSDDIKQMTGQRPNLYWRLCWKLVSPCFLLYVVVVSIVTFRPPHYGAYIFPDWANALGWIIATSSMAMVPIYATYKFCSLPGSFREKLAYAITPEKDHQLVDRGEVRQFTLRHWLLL
smiles,measurement,setting,value
CC(NC(C)(C)C)C(=O)c1cccc(Cl)c1 (centres unmarked) [bupropion],pIC50,DAT [1],5.72
"C[N+]1([O-])CCCC2C(c3ccccc3)C(C3=NCCCC3)C(c3ccccc3)CC21 (centres unmarked) [lobinaline N-oxide, lobinaline mono-N-oxide]",character of [3H]epibatidine displacement,nicAChRs [2],more weakly with a multiphasic displacement curve
same,aqueous solubility,aqueous solubility,much more soluble than lobinaline
same,increase in amplitude of the DA signal,"DAT [3]; 1 mM in 250 nl medium, FIG. 6",twofold increase
same,duration of increase in first order rate of decay of the DA peak,"DAT [3]; after exposure, 1 mM in 250 nl",~20 min
same,increase in first order rate constant of DA decay,"DAT [3]; dorso-ventral position −5.5 mm, remains after 16 minutes",about three-fold
same,reduction in DA clearance,DAT [3],60%
same,increase in amplitude of DA signal,DAT [3],doubling
same,pIC50,DAT [4],6.29
same,"DA clearance parameters, dorsal striatum, early changes","DAT [5]; DV-3.5 to DV-5.5 mm, FIG. 12","increase in T80 and clearance rate that reflects the increase in peak amplitude, with no change in k−1"
same,"DA peak amplitude, dorsal striatum","DAT [5]; DV-3.5 to DV-5.5 mm, up to 26 minutes after micro-injection, FIG. 12",marked and prolonged (but variable) increase
same,"DA peak amplitude, ventral striatum","DAT [5]; DV-6 to −7.5 mm (shell of nucleus accumbens), up to 26 minutes, FIG. 13",marked and consistent increase
same,"DA clearance parameters, ventral striatum","DAT [5]; DV-6 to −7.5 mm, FIG. 13",increase in clearance rate and k−1 at 21 and 26 minutes
same,"DA clearance parameters, dorsal striatum, later","DAT [5]; after 11-26 minutes, FIG. 12",increase in both uptake rate and k−1 with little change in T80
same,duration of increase in DA amplitude,DAT [5]; over four local applications of dopamine,at least 20 minutes
same,effect on DA clearance parameters,DAT [5]; relative to % control,reduced immediately after microinjection but increased later
same,effect on amplitude of the DA signal,"DAT [5]; single local application ~500 nl 250 μM, striatum, FIGS. 10, 11",increase in amplitude
C[N+]1([O-])CCCC2C(c3ccccc3)C(C3=[N+]([O-])CCCC3)C(c3ccccc3)CC21 (centres unmarked) [lobinaline bi-N-oxide],pKi,nicAChRs [2],5.19
same,character of [3H]epibatidine displacement,nicAChRs [2],monophasically displaced
same,effects on the DAT in vivo compared with mono-N-oxide,"DAT [3]; rat, in vivo",less potent than the “natural” mono-N-oxide
same,reduction in DA clearance,DAT [3],40%
same,increase in amplitude of DA signal,DAT [3],4 fold
same,overt toxicity,[6]; after 3 repeated drug administrations,no signs of overt toxicity
same,sedation or locomotor activation,"[6]; lobinaline 5 or 25 mg/kg, bi-N-oxide 25 mg/Kg S.C",no sedation or locomotor activation
same,conditioned place preference or aversion,"[6]; lobinaline 5 or 25 mg/kg, bi-N-oxide 25 mg/Kg S.C, three pairings",neither lobinaline nor the lobinaline bi-N-oxide produced conditioned place preference or aversion
same,food or water intake,[7],no reduction in food or water intake
same,overt toxicity,[7],neither compound produced overt toxicity
same,pIC50,DAT [4],5.92
same,effect on nicotine-induced LMA sensitization trend,[8]; 25 mg/Kg SC 20 min before nicotine 0.5 mg/Kg SC on day 6,reversed in both sexes
same,individual animals showing the same trend,"[8]; day 6 vs days 1-5, repeated measures",10/12
CNC1(C)C2CCC(C2)C1(C)C (centres unmarked) [mecamylamine],effect of antagonist pretreatment on lobinaline (100 μM)-evoked fractional [3H] release,nicAChRs [9],significantly attenuated
same,inhibition of lobinaline-fraction-evoked 45Ca2+ entry by antagonist,nicAChR,completely inhibited
